Values of other authors, collected in patent publication US5559147A, “Aromatic fluorine-containing organotin compounds and anti-tumour composition” (Pharmachemie B.V., priority 1994, dated 1996).

Columns and labels:
WiDR, a colon carcinoma = settings: earlier work
[1] = tested on: two human tumour cell lines, MCF-7 and WiDR; settings: in words
MCF-7, a mammary tumour = settings: earlier work

Compound | ID50 (WiDR, a colon carcinoma) [µg/mL] | ID50 compared with reference drug [1] | ID50 (MCF-7, a mammary tumour) [µg/mL]
CCC[CH2][Sn]([CH2]CCC)([O]C(=O)c1cccc(F)c1F)[O]C(=O)c1cccc(F)c1F [(2,3-F2 C6 H3 CO2)2 SnBu2] | 0.283 | comparable to mitomycin C | 0.023
CCC[CH2][Sn]([CH2]CCC)([O]C(=O)c1ccc(F)cc1)[O]C(=O)c1ccc(F)cc1 [(4-F-C6 H4 CO2)2 SnBu2] | 0.309 | comparable to those observed for etoposide | 0.09
{(4-F-C6 H4 CH2 CO2 SnBu2)2 O}2 | 0.268 | – | 0.038
{(2-F-C6 H4 CH=CHC2 SnBu2)2 O}2 | 0.368 | – | 0.028
CCC[CH2][Sn+2][CH2]CCC.O=C([O-])c1c(F)c(F)c(F)c(F)c1C(=O)[O-] [Di-n-butyltintetrafluorophthalate] | 0.068 | – | 0.051
{(2,3-F2 C6 H3 CO2 SnBu2)2 O}2 | 0.12 | comparable to mitomycin C | 0.009
{(2,3,4,5-F4 C6 HCO2 SnBu2)2 O}2 | 0.25 | – | 0.035
{(4-F-C6 H4 CO2 SnBu2)2 O}2 | 0.36 | comparable to those observed for etoposide | 0.081
{(2,3,6-F3 C6 H3 CO2 SnBu2)2 O}2 | 0.2 | – | 0.013
